Measured values published in ChEMBL document CHEMBL2331257, “(M)- and (P)-bicelaphanol A, dimeric trinorditerpenes with promising neuroprotective activity from Celastrus orbiculatus” (2013).

What was measured:
Type in all cases: functional
[1] = system: PC-12; experiment: Neuroprotective activity against H2O2-induced toxicity in rat PC12 cells assessed as cell viability at 10 uM incubated for 2 hrs prior to H2O2-challenge measured after 24 hrs by MTT assay relative to control; conditions: for viability at 10 µM: Rattus norvegicus, PC-12, read-out: Activity
[2] = system: PC-12; experiment: Neuroprotective activity against H2O2-induced toxicity in rat PC12 cells assessed as cell viability at 1 uM incubated for 2 hrs prior to H2O2-challenge measured after 24 hrs by MTT assay relative to control; conditions: for viability at 1 µM: Rattus norvegicus, PC-12, read-out: Activity
[3] = system: PC-12; experiment: Neuroprotective activity against H2O2-induced toxicity in rat PC12 cells assessed as cell viability at 100 uM incubated for 2 hrs prior to H2O2-challenge measured after 24 hrs by MTT assay relative to control; conditions: read-out: Activity

SMILES | viability at 10 µM [1] [%] | viability at 1 µM [2] [%] | Activity [1] [%] | Activity [2] [%] | viability at 100 µM [3] [%]
CC1(C)CCC[C@@]2(C)C1=C(O)C(=O)c1c2cc(O)c(O)c1C1=C2C=C(O)C(=O)C=C2[C@@]2(C)CCCC(C)(C)[C@@H]2C1=O (stereo in doubt; 2) | 91.6 | 78.3 | – | – | –
CC1(C)CCC[C@@]2(C)C1=C(O)C(=O)c1c2cc(O)c(O)c1C1=C2C=C(O)C(=O)C=C2[C@@]2(C)CCCC(C)(C)[C@@H]2C1=O (stereo in doubt; 1) | – | – | 102.7 | 81.3 | –
CC1(C)CCC[C@@]2(C)C1=C(O)C(=O)c1cc(O)c(O)cc12 [CELAPHANOL A] | 76.9 | 66.4 | – | – | –
CC(=O)N[C@@H](CS)C(=O)O [ACETYLCYSTEINE] | – | – | – | – | 76.1
